Here are results for six compounds from patent publication US11053216B2, “Compounds and methods of use” (Medivation Technologies LLC, priority 2014, dated 2021).

The nature of data set [1]: Pharmacokinetics and bioavailability in male mice after a single dose. Format: in vivo.
Data set [2] in a line: Plasma and brain concentrations at 0.5 and 1 h. The format is in vivo, mice.
The target of another data set is ALK3 (BMPR1A) (Homo sapiens (Human), UniProt P36894). The data set is described as follows: In vitro kinase assay (33P ATP, 10 μM ATP). The format is biochemical. To be noted: read-out: Inhibition of ALK3 (IC50 μM).

A word on the Cmax: it is the peak of the concentration-time curve. In general, IC50 refers to the concentration needed to halve the response being measured.

ALK3 (BMPR1A), sequence (P36894 24-532): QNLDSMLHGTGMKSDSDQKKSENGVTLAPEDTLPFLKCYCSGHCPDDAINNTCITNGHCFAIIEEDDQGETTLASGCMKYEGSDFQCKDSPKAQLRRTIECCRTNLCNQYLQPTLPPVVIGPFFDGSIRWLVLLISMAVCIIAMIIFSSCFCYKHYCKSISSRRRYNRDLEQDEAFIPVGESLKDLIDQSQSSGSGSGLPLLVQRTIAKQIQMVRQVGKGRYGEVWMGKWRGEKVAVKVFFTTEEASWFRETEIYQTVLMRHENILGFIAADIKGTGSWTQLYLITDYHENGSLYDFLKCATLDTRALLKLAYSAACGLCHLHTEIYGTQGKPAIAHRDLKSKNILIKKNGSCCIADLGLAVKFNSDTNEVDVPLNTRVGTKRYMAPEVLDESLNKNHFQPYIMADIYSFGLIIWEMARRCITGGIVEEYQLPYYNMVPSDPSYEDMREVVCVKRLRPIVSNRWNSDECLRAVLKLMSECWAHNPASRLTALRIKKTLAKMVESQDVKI

In data set [1] (oral, 10 mg/kg), `CCc1cnc(-c2cc(Cl)ccc2F)cc1Nc1ccncc1C(=O)NC[C@H](C)O` (single isomer, unassigned) [11a] returned a Cmax of 3.48 µM.
As for `CC(C)c1cnc(-c2cc(Cl)ccc2F)cc1Nc1ncncc1C(=O)NC[C@H](C)O` (single isomer, unassigned) [12a], the Cmax in data set [1] (mouse, plasma, intravenous, 2 mg/kg) amounted to 7.15 µM.
In the case of `CC(C)c1cnc(-c2cc(Cl)ccc2F)cc1Nc1ccncc1C(=O)NC[C@H](C)O` [2a, (S)-4-[[2-(5-chloro-2-fluoro-phenyl)-5-isopropyl-4-pyridyl]amino]-N-(2-hydroxypropyl)pyridine-3-carboxamide], the Brain concentration was 73.2 ng/mL in data set [2] (IV 2 mg/kg, 0.5 h); 82.4 ng/mL in data set [2] (IV 2 mg/kg, 1 h); 202 ng/mL in data set [2] (PO 10 mg/kg, 0.5 h); 114 ng/mL in data set [2] (PO 10 mg/kg, 1 h). The Plasma concentration came out at 310 ng/mL in data set [2] (IV 2 mg/kg, 0.5 h); 366 ng/mL in data set [2] (IV 2 mg/kg, 1 h); 1570 ng/mL in data set [2] (PO 10 mg/kg, 0.5 h); 905 ng/mL in data set [2] (PO 10 mg/kg, 1 h).
`C=C(C)c1cnc(-c2cc(Cl)ccc2F)cc1Nc1ccncc1C(=O)NC[C@H](C)O` [3a, (S)-4-(2-(5-chloro-2-fluorophenyl)-5-(prop-1-en-2-yl)pyridin-4-ylamino)-N-(2-hydroxypropyl)pyridine-5-carboxamide]: the Brain concentration in data set [2] (IV 2 mg/kg, 0.5 h) was determined as 173 ng/mL; in data set [2] (IV 2 mg/kg, 1 h), 168 ng/mL; in data set [2] (PO 10 mg/kg, 0.5 h), 305 ng/mL; in data set [2] (PO 10 mg/kg, 1 h) it was 406 ng/mL. For the same compound, the Plasma concentration in data set [2] (IV 2 mg/kg, 0.5 h) turned out to be 432 ng/mL; in data set [2] (IV 2 mg/kg, 1 h), 365 ng/mL; in data set [2] (PO 10 mg/kg, 0.5 h) it was 1280 ng/mL; in data set [2] (PO 10 mg/kg, 1 h) it was 1250 ng/mL.
Turning to `C[C@H](O)CNC(=O)c1cnccc1Nc1cc(-c2cc(Cl)ccc2F)ncc1N(C)C` [16a, (S)-4-(2-(5-chloro-2-fluorophenyl)-5-(dimethylamino)pyridin-4-ylamino)-N-(2-hydroxypropyl)nicotinamide], the Cmax in data set [1] (oral, 10 mg/kg) worked out at 3.42 µM.
As for `Fc1ccc(Cl)cc1-c1cc(Nc2ccnc3[nH]ccc23)c(C2CC2)cn1` [compound 32, 2-(5-chloro-2-fluorophenyl)-5-cyclopropyl-N-{1H-pyrrolo[2,3-b]pyridin-4-yl}pyridin-4-amine], the IC50 at ALK3 (BMPR1A) came to 333 µM.
